Test results published in paper PMC5866837, “Towards a generic physiologically based kinetic model to predict in vivo uterotrophic responses in rats by reverse dosimetry of in vitro estrogenicity data” (Archives of Toxicology, 2017).
Where two headings read alike, the source gives them in different places. Marks after values point to notes of the source that are not given here. Each block holds one molecule with its values, some of them ahead of it.

Assays:
uterus weight in rats [1] = test: In vivo uterotrophic assay and BMD analysis (PROAST) of its data; design: species or system rat; settings: for BMD (BMD10) / BMDL (BMDL10) / BMDU (BMDU10): PROAST exponential model, BMR 10%, absolute uterus weight; for BMDL (BMDL10) / BMDU (BMDU10): in mg/kg
Procedure: To that end, a literature research was performed using the search terms uterotrophic assay, rats, oral administration.
Furthermore, benchmark dose (BMD) values derived from the predicted dose–response data were compared with BMD values derived from the dose–response data from the uterotrophic assay as reported in the literature. To that end, BMD modelling was applied on dose–response data using the exponential model for continuous data of the PROAST software from The National Institute for Public Health and the Environment of the Netherlands (RIVM) version 38.9 (Slob [2002]). The benchmark response (BMR) was defined as a 10% increase of response change compared to the control. The predicted dose level with an estimated 10% extra risk obtained is shown as BMD10. The lower and upper limits of the 95% confidence interval on the BMD10 are defined as BMDL10 and BMDU10. In PROAST, BMD values are only reported if the model fit of the data is accepted, so when the software provided BMD values, it was assumed that the data had been adequately modelled. […] For in vivo studies, the absolute uterus weight values were used as input for the response in the continuous model.

[2] = rat, oral, read-out: In vivo C max, cited from earlier work
human ERs = test system: human ERs; design: method as in Kolle et al. [2010]; Wang et al. [2014]; settings: ref Kolle et al. [2010]; Wang et al. [2014]; cited from earlier work
[3] = design: method as in Hansch et al. [1995]; settings: ref Hansch et al. [1995]; cited from earlier work
[4] = test system: uterotrophic growth in rats; test: PBK modelling-based reverse dosimetry of YES assay data and BMD analysis; design: species or system rat
Source text: For each in vitro concentration–response dataset from the three assays, the PBK modelling-based reverse dosimetry approach was used to predict the dose levels that are required to reach concentrations in blood that were applied in these assays. As it is assumed that the fraction unbound (f ub) of the parent compound induces the toxicity, the possible difference in the f ub in the in vitro assay medium and in rat serum was corrected prior to applying reverse dosimetry. The f ub of E2 and BPA were determined for in vitro assay media and rat serum as described below. PBK modelling-based reverse dosimetry. […] Consequently, for reverse dosimetry, the in vitro unbound concentration (C ub, in vitro) was set equal to the unbound C max in blood (C ub, in vivo) to determine the dose that is required to cause an in vivo estrogenic effect. The C ub, in vitro was estimated based on the equation: C ub, in vitro = C in vitro × f ub, in vitro, where C in vitro is the nominal concentration applied in the in vitro assay and f ub, in vitro is the fraction unbound of the chemical in the in vitro assay medium as determined using the RED assay. The C ub, in vivo was estimated based on the equation: C ub, in vivo = C in vivo × f ub, in vivo, where C in vivo is the nominal blood concentration in rat and fub, in vivo is the fub in rat serum. Assuming that for the prediction of in vivo toxicity, the C ub, in vitro is the same as C ub, in vivo, the nominal blood concentration in rat can be described by the following equation: C in vivo = C ub, in vivo/f ub, in vivo = C ub, in vitro/f ub, in vivo = (C in vitro × f ub, in vitro)/fub, in vivo. By calculating with the PBK model which dose is required to reach a C in vivo, an in vitro concentration can be translated into an in vivo dose. Performing this exercise for all the concentrations applied in the in vitro assays, the in vitro concentration–response curves were translated into predicted in vivo dose–response curves. […]

uterus weight in rats [5] = settings: oral gavage, cited from earlier work
[6] = Rapid equilibrium dialysis (RED), fraction unbound in rat serum; assay type: in vitro ADME; settings: RED 5 h at 37 °C, read-out: f ub (fraction unbound)
Procedure: (§1) The assay medium used in the ER-CALUX and the proliferation assay contains 5% FCS, so the RED assay was performed using the assay medium for these two assays and for rat serum. The f ub was determined using the protocol described by Waters et al. ([2008]). The RED device insert has two chambers, a plasma and a buffer chamber. […] After incubating for 5 h at 37 °C at 250 rpm on an orbital shaker, the system reaches equilibrium (van […] et al. [2011]). 25 μL of post-dialysis samples were collected from the plasma and buffer chambers in separate tubes. Simultaneously, 25 μL of corresponding buffer (PBS) was added to the sample taken from the plasma chamber and the same volume of corresponding rat serum or in vitro medium was added to the sample taken from the buffer chamber. Then, 300 μL cold precipitation buffer (90/10 ACN/water) was added to both samples to precipitate the proteins and release the compound. The samples were put on ice for 30 min and subsequently centrifuged for 15 min at 15,000×g (CT 15RE, Hitachi Koki Co., Ltd). Then, the supernatants were collected for UPLC analysis. By determining the compound concentration in each chamber, the fraction unbound can be calculated with the following equation: f ub = concentration in buffer chamber/concentration in plasma chamber (van […] et al. [2011]; Waters et al. [2008]). […]

[7] = Rapid equilibrium dialysis (RED), fraction unbound in in vitro assay medium; assay type: in vitro ADME; settings: bovine, assay medium with 5% FCS, RED 5 h at 37 °C, read-out: f ub (fraction unbound)
Procedure: as §1

[8] = in vivo data of Kanno et al. 2003 (doses in mg/kg bw)
[9] = in vivo data of Tinwell and Ashby 2004 (doses in mg/kg bw)
[10] = in vivo data of Odum et al. 1997 (doses in mg/kg bw)

Compound: CC(C)(c1ccc(O)cc1)c1ccc(O)cc1 [BPA, bisphenol A]
Fold difference in BMD10 values between the two in vivo studies (uterus weight in rats [1]; Kanno et al. 2003 vs Tinwell and Ashby 2004): 25.8 fold
BMD (BMD10) (uterus weight in rats [1]; [8]): 207 mg/kg
BMDL (BMDL10) (uterus weight in rats [1]; [8]): 62.66
BMDU (BMDU10) (uterus weight in rats [1]; [8]): 516.80
BMD (BMD10) (uterus weight in rats [1]; [9]): 8.02 mg/kg
BMDL (BMDL10) (uterus weight in rats [1]; [9]): 1.00
BMDU (BMDU10) (uterus weight in rats [1]; [9]): 37.13
Cmax ([2]; 10 mg/kg bw, ref Pottenger et al. (2000)): 0.175 µM
Cmax ([2]; 100 mg/kg bw, ref Pottenger et al. (2000)): 9.88 µM
Higher concentrations required for an estrogenic response in the YES assay than in MCF-7/BOS proliferation and U2OS ER-CALUX assays (human ERs): 3 orders of magnitude
Log P ow [3]: 3.3^a
Predicted BMDL10 fold higher than BMDL10 of the in vivo data ([4]; in vivo data from Tinwell and Ashby (2004)): 4.7 fold
Predicted BMDL10 fold lower than BMDL10 of the in vivo data ([4]; in vivo data of Kanno et al. (2003)): 13.4 fold
Mean value of uterus weight (uterus weight in rats [5]; rat (AP), 10 mg/kg bw, ref Tinwell and Ashby 2004): 23.9 mg
Mean value of uterus weight (uterus weight in rats [5]; rat (AP), 100 mg/kg bw, ref Tinwell and Ashby 2004): 29.0 mg
Mean value of uterus weight (uterus weight in rats [5]; rat (AP), 300 mg/kg bw, ref Tinwell and Ashby 2004): 38.5 mg
Mean value of uterus weight (uterus weight in rats [5]; rat (AP), 600 mg/kg bw, ref Tinwell and Ashby 2004): 41.4 mg
Mean value of uterus weight (uterus weight in rats [5]; rat (AP), 800 mg/kg bw, ref Tinwell and Ashby 2004): 59.0 mg
Mean value of uterus weight (uterus weight in rats [5]; rat (Sprague–Dawley), 60 mg/kg bw, ref Kanno et al. 2003): 26.8 mg
Mean value of uterus weight (uterus weight in rats [5]; rat (Sprague–Dawley), 200 mg/kg bw, ref Kanno et al. 2003): 30.1 mg
Mean value of uterus weight (uterus weight in rats [5]; rat (Sprague–Dawley), 375 mg/kg bw, ref Kanno et al. 2003): 30.4 mg
Mean value of uterus weight (uterus weight in rats [5]; rat (Sprague–Dawley), 600 mg/kg bw, ref Kanno et al. 2003): 37.0 mg
Mean value of uterus weight (uterus weight in rats [5]; rat (Sprague–Dawley), 1000 mg/kg bw, ref Kanno et al. 2003): 44.1 mg
fraction unbound at 5 h, 5 µM [6]: 0.04 ± 0.001
fraction unbound at 5 h, 5 µM [7]: 0.461 ± 0.035

BMD (BMD10) (uterus weight in rats [1]; [10]): 0.0134 mg/kg
BMDL (BMDL10) (uterus weight in rats [1]; [10]): 0.002915
BMDU (BMDU10) (uterus weight in rats [1]; [10]): 0.03371
Predicted BMDL10 lower than that of BPA ([4]; YES assay-based prediction): 4 orders of magnitude
fraction unbound at 5 h, 5 µM [6]: 0.05 ± 0.005
fraction unbound at 5 h, 5 µM [7]: 0.628 ± 0.012
Compound: C[C@]12CC[C@@H]3c4ccc(O)cc4CC[C@H]3[C@@H]1CC[C@@H]2O [E2, 17β-estradiol]
Cmax ([2]; 0.02 mg/kg bw, ref Bawarshi-Nassar et al. (1989)): 0.0006 µM
Cmax ([2]; 0.08 mg/kg bw, ref Bawarshi-Nassar et al. (1989)): 0.0027 µM
Higher concentrations required for an estrogenic response in the YES assay than in MCF-7/BOS proliferation and U2OS ER-CALUX assays (human ERs): 2 orders of magnitude
Log P ow [3]: 4.0^a
Mean value of uterus weight (uterus weight in rats [5]; rat (AP), 0.01 mg/kg bw, ref Odum et al., 1997): 37.5 mg
Mean value of uterus weight (uterus weight in rats [5]; rat (AP), 0.02 mg/kg bw, ref Odum et al., 1997): 39 mg
Mean value of uterus weight (uterus weight in rats [5]; rat (AP), 0.04 mg/kg bw, ref Odum et al., 1997): 38.3 mg
Mean value of uterus weight (uterus weight in rats [5]; rat (AP), 0.10 mg/kg bw, ref Odum et al., 1997): 68.1 mg
Mean value of uterus weight (uterus weight in rats [5]; rat (AP), 0.20 mg/kg bw, ref Odum et al., 1997): 70.9 mg
Mean value of uterus weight (uterus weight in rats [5]; rat (AP), 0.40 mg/kg bw, ref Odum et al., 1997): 101.7 mg
